Our source for the activity values is patent publication US8877747B2, “Indenone derivative and pharmaceutical composition comprising same” (Korea Research Institute of Chemical Technology, priority 2009, dated 2014).

Structures can show the parent of a compound that is named as a salt.

The subject of the assay is MC3T3-E1 cells. The experiment in a line: ALP activity, differentiation of osteoblast cells. The format is cell-based. As to conditions: Mus musculus, MC3T3-E1, 144 h; MC3T3E1 cells treated with 10 μM compound and OF; relates activity to OF-only group (100%); higher = more efficacious. As for the experimental part: To examine the effects of the inventive indenone derivatives on the differentiation and activation of osteoblast cells, the activity and expression of alkaline phosphatase (ALP), a marker for the differentiation of osteoblast cells, and the bone nodule formation using a mouse derived osteoblast-like cells, MC3T3-E1 (ATCC, Japan) or a primary mouse calvaria derived preosteoblastic cells were observed.
MC3T3-E 1 cells were seeded in a medium containing osteogenic factors (OF) such as ascorbic acids and β-glycerophosphates (b-GP), and each compound of Examples was added thereto at a concentration of 0.1, 1 and 10 μM. The cells were incubated for 6 days (MC3T3-E1 cells) or 7 days (primary mouse calvaria derived preosteoblastic cells) in a 37° C. CO2 incubator. Then, the culture medium was replaced with a fresh medium together with the test compound every two or three days. On the last day, the medium was centrifuged to remove the supernatant, and the cells were washed with PBS. The washed cells were subjected to a 3-cycle freege-thaw treatment using a −70° C. deep freezer to allow enzymes elute in a lysis buffer. The lysed protein was quantified, followed by measurement of ALP activity using 4-nitrophenylphosphate.
Further, a group treated only with DMSO or OF was tested for ALP activities for comparison.
As to `COc1ccc(C2=C(c3ccc(F)cc3F)c3ccc(OCCCN4CCN(S(C)(=O)=O)CC4)cc3C2=O)cn1` [Example 109, 3-(2,4-difluorophenyl)-6-{3-[4-(methylsulfonyl)piperazin-1-yl]propoxy}-2-(6-methoxypyridin-3-yl)-1H-inden-1-one], the activity at 10 µM came to 177%.

Take `CC(C)(C)OC(=O)N1CCN(CCCOc2ccc3c(c2)C(=O)C(c2cccnc2)=C3c2ccccc2)CC1` [Example 55, tert-Butyl 4-(3-(1-oxo-3-phenyl-2-(pyridin-3-yl)-1H-inden-6-yloxy)propyl)piperazine-1-carboxylate]: the activity at 10 µM came out at 129%.

Turning to `COc1ccc(C2=C(c3ccccc3)c3ccc(OCCN4CCOCC4)cc3C2=O)cn1` [Example 6, 6-(2-morpholinoethoxy)-2-(6-methoxypyridin-3-yl)-3-phenyl-1H-inden-1-one], the activity at 10 µM worked out at 63%.

Turning to `O=C1C(c2ccc(Oc3ccccc3)cc2)=C(c2ccccc2)c2ccc(OCCN3CCOCC3)cc21` [Example 21, 6-(2-morpholinoethoxy)-2-(4-phenoxyphenyl)-3-phenyl-1H-inden-1-one], the activity at 10 µM was 130%.

Regarding `CS(=O)(=O)N1CCC(CCOc2ccc3c(c2)C(=O)C(c2cccnc2)=C3c2cc(F)cc(F)c2)CC1` [Example 73, 3-(3,5-difluorophenyl)-6-(2-(1-(methylsulfonyl)piperidin-4-yl)ethoxy)-2-(pyridin-3-yl)-1H-inden-1-one hydrochloride salt], the activity at 10 µM was determined as 150%.

`O=C1C(c2cccnc2)=C(c2cc(F)cc(F)c2)c2ccc(OCCN3CCCCC3)cc21` [Example 63, 3-(3,5-difluorophenyl)-6-(2-(piperidin-1-yl)ethoxy)-2-(pyridin-3-yl)-1H-inden-1-one hydrochloride salt]: the activity at 10 µM worked out at 53%.

On to `O=C1C(c2cncc3ccccc23)=C(c2ccccc2)c2ccc(OCCN3CCOCC3)cc21` [Example 15, 6-(2-morpholinoethoxy)-2-(isoquinolin-4-yl)-3-phenyl-1H-inden-1-one], for which the activity at 10 µM was determined as 65%.

`NC(=O)c1ccc(C2=C(c3ccccc3)c3ccc(OCCN4CCOCC4)cc3C2=O)cc1` [Example 4, 4-(6-(2-morpholinoethoxy)-1-oxo-3-phenyl-1H-inden-2-yl)benzamide]: the activity at 10 µM amounted to 128%.

For `COc1ccc(C2=C(c3ccc(F)cc3F)c3ccc(OCCN4CCOCC4)cc3C2=O)cn1` [Example 125, 3-(2,4-difluorophenyl)-2-(6-methoxypyridin-3-yl)-6-[2-(morpholin-4-yl)ethoxy]-1H-inden-1-one], the activity at 10 µM amounted to 63%.

Regarding `COc1ccc(C2=C(c3ccc(F)cc3F)c3ccc(OCCC4CCN(S(C)(=O)=O)CC4)cc3C2=O)cn1` [Example 121, 3-(2,4-difluorophenyl)-2-(6-methoxypyridin-3-yl)-6-{2-[1-(methylsulfonyl)piperidin-4-yl]ethoxy}-1H-inden-1-one], the activity at 10 µM turned out to be 207%.

As for `O=C1C(c2ccc(C(F)(F)F)cc2)=C(c2ccc(F)cc2)c2ccc(OCCN3CCOCC3)cc21` [Example 27, 6-(2-morpholinoethoxy)-2-(4-(trifluoromethyl)phenyl)-3-(4-fluorophenyl)-1H-inden-1-one], the activity at 10 µM came to 75%.

As to `O=C1C(c2ccc[n+]([O-])c2)=C(c2ccccc2)c2ccc(OCC[N+]3([O-])CCOCC3)cc21` [Example 43, 4-oxido-4-(2-{[2-(1-oxidopyridin-1-ium-3-yl)-1-oxo-3-phenyl-1H-inden-6-yl]oxy}ethyl)morpholin-4-ium], the activity at 10 µM stood at 125%.

With `O=C1C(c2ccc(C(F)(F)F)cc2)=C(c2cc(F)cc(F)c2)c2ccc(OCCN3CCOCC3)cc21` [Example 37, 6-(2-morpholinoethoxy)-2-(4-(trifluoromethyl)phenyl)-3-(3,5-difluorophenyl)-1H-inden-1-one], the activity at 10 µM was found to be 80%.

For the molecule `O=C1C(c2ccc(-c3ccccc3)cc2)=C(c2ccccc2)c2ccc(OCCN3CCOCC3)cc21` [Example 10, 6-(2-morpholinoethoxy)-2-(4-(phenyl)phenyl)-3-phenyl-1H-inden-1-one], the activity at 10 µM is 172%.

Consider `O=C1C(c2ccc3c(c2)OCO3)=C(c2ccccc2)c2ccc(OCCN3CCOCC3)cc21` [Example 85, 2-(benzo[1,3]dioxol-5-yl)-6-(2-morpholinoethoxy)-3-phenyl-1H-inden-1-one], for which the activity at 10 µM was found to be 77%.

`Cc1ccc(C2=C(c3cc(F)cc(F)c3)c3ccc(OCCN4CCN(S(C)(=O)=O)CC4)cc3C2=O)cc1` [Example 98, 3-(3,5-difluorophenyl)-6-{2-[4-(methylsulfonyl)piperazin-1-yl]ethoxy}-2-p-tolyl-1H-inden-1-one hydrochloride salt]: the activity at 10 µM was found to be 146%.

As for `COc1ccc(C2=C(c3cc(F)cc(F)c3)c3ccc(OCCN4CCN(S(C)(=O)=O)CC4)cc3C2=O)cc1F` [Example 99, 2-(3-fluoro-4-methoxyphenyl)-3-(3,5-difluorophenyl)-6-{2-[4-(methylsulfonyl)piperazin-1-yl]ethoxy}-1H-inden-1-one hydrochloride salt], the activity at 10 µM amounted to 212%.

Consider `CS(=O)(=O)N1CCN(CCOc2ccc3c(c2)C(=O)C(c2ccc(F)c(F)c2)=C3c2cc(F)cc(F)c2)CC1` [Example 51, 2-(3,4-difluorophenyl)-3-(3,5-difluorophenyl)-6-(2-(4-(methylsulfonyl)piperazin-1-yl)ethoxy)-1H-inden-1-one hydrochloride salt], for which the activity at 10 µM is 33%.

For `Cc1ccc(C2=C(c3cc(F)cc(F)c3)c3ccc(OCCC4CCN(S(C)(=O)=O)CC4)cc3C2=O)cc1` [Example 103, 3-(3,5-difluorophenyl)-6-{2-[1-(methylsulfonyl)piperidin-4-yl]ethoxy}-2-p-tolyl-1H-inden-1-one], the activity at 10 µM worked out at 209%.

Consider `Cc1ccc(C2=C(c3ccc(F)cc3F)c3ccc(OCCC4CCN(S(C)(=O)=O)CC4)cc3C2=O)cc1` [Example 120, 3-(2,4-difluorophenyl)-6-{2-[1-(methylsulfonyl)piperidin-4-yl]ethoxy}-2-p-tolyl-1H-inden-1-one], for which the activity at 10 µM turned out to be 169%.

For `CS(=O)(=O)N1CCC(CCOc2ccc3c(c2)C(=O)C(c2cnc4ccccc4c2)=C3c2ccc(F)cc2F)CC1` [Example 123, 3-(2,4-difluorophenyl)-6-{2-[1-(methylsulfonyl)piperidin-4-yl]ethoxy}-2-(quinolin-3-yl)-1H-inden-1-one], the activity at 10 µM amounted to 164%.

Regarding `CC(=O)N1CCN(CCCOc2ccc3c(c2)C(=O)C(c2cccnc2)=C3c2cc(F)cc(F)c2)CC1` [Example 67, 6-(3-(4-acetylpiperazin-1-yl)propoxy)-3-(3,5-difluorophenyl)-2-(pyridin-3-yl)-1H-inden-1-one hydrochloride salt], the activity at 10 µM came to 116%.

On to `O=C1C(c2cccnc2)=C(c2cc(F)cc(F)c2)c2ccc(OCCN3CCS(=O)(=O)CC3)cc21` [Example 74, 6-[2-(1,1-dioxothiomorpholin-4-yl)ethoxy]-3-(3,5-difluorophenyl)-2-(pyridin-3-yl)-1H-inden-1-one hydrochloride salt], for which the activity at 10 µM came to 206%.

`Cc1ccc(C2=C(c3ccc(F)cc3F)c3ccc(OCCCN4CCN(S(C)(=O)=O)CC4)cc3C2=O)cc1` [Example 108, 3-(2,4-difluorophenyl)-6-{3-[4-(methylsulfonyl)piperazin-1-yl]propoxy}-2-p-tolyl-1H-inden-1-one]: the activity at 10 µM was 111%.

For `COc1ccc(C2=C(c3cc(F)cc(F)c3)c3ccc(OCCCN4CCN(S(C)(=O)=O)CC4)cc3C2=O)cc1F` [Example 106, 2-(3-fluoro-4-methoxyphenyl)-3-(3,5-difluorophenyl)-6-{3-[4-(methylsulfonyl)piperazin-1-yl]propoxy}-1H-inden-1-one hydrochloride salt], the activity at 10 µM came out at 133%.

Consider `O=C1C(c2ccc(F)nc2)=C(c2ccccc2)c2ccc(OCCN3CCOCC3)cc21` [Example 9, 6-(2-morpholinoethoxy)-2-(6-fluoropyridin-3-yl)-3-phenyl-1H-inden-1-one], for which the activity at 10 µM worked out at 87%.

In the case of `Nc1cccc(C2=C(c3ccccc3)c3ccc(OCCN4CCOCC4)cc3C2=O)c1` [Example 20, 6-(2-morpholinoethoxy)-2-(3-aminophenyl)-3-phenyl-1H-inden-1-one], the activity at 10 µM came to 283%.

Regarding `COc1ccc(C2=C(c3ccc(F)cc3F)c3ccc(OCCN4CCS(=O)(=O)CC4)cc3C2=O)cn1` [Example 113, 3-(2,4-difluorophenyl)-2-(6-methoxypyridin-3-yl)-6-[2-(1,1-dioxothiomorpholin-4-yl)ethoxy]-1H-inden-1-one], the activity at 10 µM worked out at 217%.

On to `O=C1C(c2cnc3ccccc3c2)=C(c2ccccc2)c2ccc(OCCN3CCOCC3)cc21` [Example 3, 6-(2-morpholinoethoxy)-3-phenyl-2-(quinolin-3-yl)-1H-inden-1-one], for which the activity at 10 µM turned out to be 216%.

`C[n+]1cccc(C2=C(c3ccccc3)c3ccc(OCC[N+]4(C)CCOCC4)cc3C2=O)c1` [Example 40, 4-methyl-4-(2-{[2-(1-methylpyridin-1-ium-3-yl)-1-oxo-3-phenyl-1H-inden-6-yl]oxy}ethyl)morpholin-4-ium diiodide]: the activity at 10 µM turned out to be 291%.

As for `CC(=O)Nc1cccc(C2=C(c3ccccc3)c3ccc(OCCN4CCOCC4)cc3C2=O)c1` [Example 14, N-(3-(6-(2-morpholinoethoxy)-1-oxo-3-phenyl-1H-inden-2-yl)phenyl)acetamide], the activity at 10 µM amounted to 131%.
